The values that follow come from patent US20170334934A1, “Macrocyclic picolinamides as fungicides” (DOW AGROSCIENCES LLC, priority 2014, published 2017).

Where two headings read alike, the source gives them in different places.

Data set [1] relates to Mycosphaerella graminicola; Anamorph: Zymoseptoria tritici. Kind of data set: Fungicidal activity: Leaf Blotch of Wheat (SEPTTR), wheat seedlings. Conditions: Low Volume (121.5 g/H), wheat. Type of data set: in vivo. As to the method:
Example A: Evaluation of Fungicidal Activity: Leaf Blotch of Wheat (Mycosphaerella graminicola; Anamorph: Zymoseptoria tritici; Bayer Code […]) Technical grades of materials were dissolved in acetone, which were then mixed with nine volumes of water containing 110 ppm Triton X-100. The fungicide solutions were applied onto wheat seedlings using an automated booth sprayer to run-off. All sprayed plants were allowed to air dry prior to further handling. All fungicides were evaluated using the aforementioned method for their activity vs. all target diseases, unless stated otherwise. Wheat leaf blotch and brown rust activity were also evaluated using track spray applications, in which case the fungicides were formulated as EC formulations, containing 0.1% Trycol 5941 in the spray solutions. Wheat plants (variety Yuma) were grown from seed in a greenhouse in 50% mineral soil/50% soil-less Metro mix until the first leaf was fully emerged, with 7-10 seedlings per pot. These plants were inoculated with an aqueous spore suspension of Zymoseptoria tritici either prior to or after fungicide treatments. After inoculation the plants were kept in 100% relative humidity (one day in a dark dew chamber followed by two to three days in a lighted dew chamber at 20° C.) to permit spores to germinate and infect the leaf. The plants were then transferred to a greenhouse set at 20° C. for disease to develop. When disease symptoms were fully expressed on the 1st leaves of untreated plants, infection levels were assessed on a scale of 0 to 100 percent disease severity. Percent disease control was calculated using the ratio of disease severity on treated plants relative to untreated plants.

The subject of the next data set is Puccinia triticina. Put plainly: Fungicidal activity: Wheat Brown Rust (PUCCRT), wheat seedlings. Type of data set: in vivo. Particulars: Low Volume (121.5 g/H). As to the method:
Technical grades of materials were dissolved in acetone, which were then mixed with nine volumes of water containing 110 ppm Triton X-100. The fungicide solutions were applied onto wheat seedlings using an automated booth sprayer to run-off. All sprayed plants were allowed to air dry prior to further handling. All fungicides were evaluated using the aforementioned method for their activity vs. all target diseases, unless stated otherwise. Wheat leaf blotch and brown rust activity were also evaluated using track spray applications, in which case the fungicides were formulated as EC formulations, containing 0.1% Trycol 5941 in the spray solutions. Wheat plants (variety Yuma) were grown from seed in a greenhouse in 50% mineral soil/50% soil-less Metro mix until the first leaf was fully emerged, with 7-10 seedlings per pot. These plants were inoculated with an aqueous spore suspension of Zymoseptoria tritici either prior to or after fungicide treatments. After inoculation the plants were kept in 100% relative humidity (one day in a dark dew chamber followed by two to three days in a lighted dew chamber at 20° C.) to permit spores to germinate and infect the leaf. The plants were then transferred to a greenhouse set at 20° C. for disease to develop. When disease symptoms were fully expressed on the 1st leaves of untreated plants, infection levels were assessed on a scale of 0 to 100 percent disease severity. Percent disease control was calculated using the ratio of disease severity on treated plants relative to untreated plants. Example B: Evaluation of Fungicidal Activity: Wheat Brown Rust (Puccinia triticina; Synonym: Puccinia recondita f. sp. tritici; Bayer Code PUCCRT) Wheat plants (variety Yuma) were grown from seed in a greenhouse in 50% mineral soil/50% soil-less Metro mix until the first leaf was fully emerged, with 7-10 seedlings per pot. These plants were inoculated with an aqueous spore suspension of Puccinia triticina either prior to or after fungicide treatments. After inoculation the plants were kept in a dark dew room at 22° C. with 100% relative humidity overnight to permit spores to germinate and infect the leaf. The plants were then transferred to a greenhouse set at 24° C. for disease to develop. Fungicide formulation, application and disease assessment followed the procedures as described in the Example A.

Where [2] appears, read: 24 h, 1 Day Protectant, read-out: SEPTTR disease control rating, 1DP.
Setting [3] is: 72 h, 3 Day Curative, read-out: SEPTTR disease control rating, 3DC.
[4] abbreviates: 24 h, 1 Day Protectant, read-out: PUCCRT disease control rating, 1DP.
Setting [5] is: 72 h, 3 Day Curative, read-out: PUCCRT disease control rating, 3DC.

In turn, `C[C@@H]1OC(=O)[C@@H](NC(=O)OC(C)(C)C)CCOC[C@H]1O` [Compound 24, tert-butyl ((3R,4S,7S)-3-hydroxy-4-methyl-6-oxo-1,5-dioxonan-7-yl)carbamate] gave a melting point of 148 to 152 °C.

For `CC(C)CO[C@@H]1COCC[C@H](NC(=O)OC(C)(C)C)C(=O)O[C@H]1C` [Compound 29], the melting point was in the range of 99 to 103 °C.

Compound `C[C@@H]1OC(=O)[C@@H](NC(=O)OC(C)(C)C)CCOC[C@H]1OCCCC(F)(F)F` [Compound 30] returned a melting point of 80 to 83 °C.

In the case of `CC[C@H]1OCC[C@H](NC(=O)c2nccc(OC)c2OC(C)=O)C(=O)O[C@@H](C)[C@@H]1Oc1ccccc1` [Compound 94], the pest or weed control at 121.5 g/ha (in data set [1] (setting [2]); in data set [1] (setting [3]); in the data set with Puccinia triticina (setting [4]); in the data set on Puccinia triticina (setting [5])) was above 70% each time.

Regarding `CC[C@H]1OCC[C@H](NC(=O)c2nccc(OC)c2OC(C)=O)C(=O)O[C@@H](C)[C@@H]1OC(=O)C(C)C` [Compound 95], the pest or weed control at 121.5 g/ha is below 70% in data set [1] (setting [2]), above 70% in data set [1] (setting [3]), above 70% in the data set with Puccinia triticina (setting [4]) and above 70% with Puccinia triticina (setting [5]).

`COc1ccnc(C(=O)N[C@H]2CCOC[C@@H](OCc3ccccc3)[C@H](C)OC2=O)c1OCOC(C)=O` [Compound 96]: the pest or weed control at 121.5 g/ha was below 70% in data set [1] (setting [2]), above 70% in data set [1] (setting [3]), above 70% in the data set with Puccinia triticina (setting [4]) and above 70% with Puccinia triticina (setting [5]).

As for `COc1ccnc(C(=O)N[C@H]2CCOC[C@@H](OCC(C)C)[C@H](C)OC2=O)c1OCOC(C)=O` [Compound 97], the pest or weed control at 121.5 g/ha (in data set [1] (setting [2]); in data set [1] (setting [3]); with Puccinia triticina (setting [4]); with Puccinia triticina (setting [5])) was above 70% throughout.

Turning to `COc1ccnc(C(=O)N[C@H]2CCOC[C@@H](OC(=O)C(C)C)[C@H](C)OC2=O)c1OCOC(C)=O` [Compound 98], the pest or weed control at 121.5 g/ha (in data set [1] (setting [2]); in data set [1] (setting [3]); in the data set with Puccinia triticina (setting [4]); in the data set on Puccinia triticina (setting [5])) was below 70% each time.

For the compound `COc1ccnc(C(=O)N[C@H]2CCOC[C@@H](Oc3ccccc3)[C@H](C)OC2=O)c1OCOC(C)=O` [Compound 99], the pest or weed control at 121.5 g/ha in data set [1] (setting [2]) was below 70%; in data set [1] (setting [3]), below 70%; in the data set with Puccinia triticina (setting [4]), above 70%; in the data set on Puccinia triticina (setting [5]), above 70%.

As to `COc1ccnc(C(=O)N[C@H]2CCOC[C@@H](Oc3ccccc3)[C@H](C)OC2=O)c1OC(C)=O` [Compound 100], the pest or weed control at 121.5 g/ha is below 70% in data set [1] (setting [2]), above 70% in data set [1] (setting [3]), above 70% in the data set with Puccinia triticina (setting [4]) and above 70% in the data set on Puccinia triticina (setting [5]).

Take `COc1ccnc(C(=O)N[C@H]2CCOC[C@@H](OCCCC(F)(F)F)[C@H](C)OC2=O)c1OC(C)=O` [Compound 101]: the melting point lay within 43 to 48 °C. In addition, in data set [1] (setting [2]), the pest or weed control at 121.5 g/ha was below 70%. Besides, the pest or weed control at 121.5 g/ha in data set [1] (setting [3]) was below 70%. Besides, in the data set with Puccinia triticina (setting [4]), the pest or weed control at 121.5 g/ha is above 70%. Moreover, the pest or weed control at 121.5 g/ha with Puccinia triticina (setting [5]) is above 70%.

A word on the melting point: it is the temperature of the solid-liquid transition.
